Reference: ChEMBL document CHEMBL1157955, “Anti-inflammatory neolignans from Piper kadsura” (J Nat Prod, 2006)
pIC50: −log10 of the molar value.

Assay: Antiinflammatory activity in human PMN assessed as inhibition of Phorbol-12-myristate-13-acetate-induced ROS production
Format: functional

Row | Compound | pIC50
1 | C=CCC1=CC(OC)(/C(C)=C/c2ccc3c(c2)OCO3)C(OC)=CC1=O (stereo not given) [FUTOQUINOL] | 4.88
2 | O=C(/C=C/c1ccc(O)cc1)NCCc1ccc(O)cc1 [N-P-COUMAROYL TYRAMINE] | 5.08
3 | C=CCC1=C[C@@](OC)(/C(C)=C/c2ccc(O)c(OC)c2)C(OC)=CC1=O [PIPERKADSIN A] | 5.37
4 | C=CCC1([C@H](C)[C@@H](OC(C)=O)c2ccc(OC)c(OC)c2)C=C(OC)C(OC)=CC1=O (stereo not given in full) [PIPERKADSIN B] | 4.91
5 | COc1c(O)cc2c3c(cc4ccccc4c13)N(OC)C2=O [PIPERLACTAM S] | 5.15
